16 molecules from ChEMBL document CHEMBL1134887, “Muraymycins, novel peptidoglycan biosynthesis inhibitors: semisynthesis and SAR of their derivatives” (Bioorg Med Chem Lett, 2002) can be followed below.

Activity calls are given as the source filed them. No cut-off for these calls is given here.

Assay type in all cases: functional
In experiment [1] the test system is Staphylococcus epidermidis. Nature of the experiment: Compound was tested for reduction in the production of lipid II relative to the control(judged by intensity) on the film, inhibition of either MraY or MurG at a dose of 50 ug/mL.
The test system of experiment [2] is Staphylococcus epidermidis. Nature of the experiment: Compound was tested for reduction in the production of lipid II relative to the control(judged by intensity) on the film, inhibition of either MraY or MurG at a dose of 25 ug/mL.
The test system of experiment [3] is Staphylococcus epidermidis. Description: Compound was tested for reduction in the production of lipid II relative to the control(judged by intensity) on the film, inhibition of either MraY or MurG at a dose of 100 ug/mL.
Experiment [4] deals with Staphylococcus epidermidis. Description: Compound was tested for reduction in the production of lipid II relative to the control(judged by intensity) on the film, inhibition of either MraY or MurG at a dose of 6.25 ug/mL.
Experiment [5] has as its system Staphylococcus epidermidis. Nature of the experiment: Inhibitory activity against MraY/MurG at a concentration of 25 ug/mL; No activity.
For experiment [6], the system named is Staphylococcus epidermidis. Nature of the experiment: Inhibitory activity against MraY/MurG at a concentration of 100 ug/mL; No activity.
Experiment [7] concerns Staphylococcus epidermidis. Description: Inhibitory activity against MraY/MurG at a concentration of 6.25 ug/mL; No activity.
For experiment [8], the system named is Staphylococcus epidermidis. Description: Inhibitory activity against MraY/MurG at a concentration of 50 ug/mL; No activity.
The test system of experiment [9] is Staphylococcus epidermidis. Description: Inhibitory activity against MraY/MurG at a concentration of 6.25 ug/mL No activity.
Experiment [10] has as its system Staphylococcus epidermidis. Description: Inhibitory activity against MraY/MurG at a concentration of 6.25 ug/mL; Not activity.
The test system of experiment [11] is Staphylococcus epidermidis. Nature of the experiment: Inhibitory activity against MraY/MurG at a concentration of 100 ug/mL; Not activity.

On to `CO[C@H]1[C@H](OC(C2C(=O)N(Cc3ccccc3)C(=O)N2CCCNC(=O)[C@@H](NC(=O)[C@@H](NC(=O)N[C@H](C(=O)O)C(C)C)[C@@H]2CCN=C(N)N2)[C@@H](O)C(C)C)[C@H]2O[C@@H](n3ccc(=O)[nH]c3=O)[C@H](O)[C@@H]2O)O[C@H](CN)[C@H]1O` (some centres undefined), for which the Inhibitory activity entry in experiment [1], in experiment [2], in experiment [3] and in experiment [4] was “Active” each time.
As to `CO[C@H]1[C@H](OC(C2C(=O)N(c3ccc(F)cc3)C(=O)N2CCCNC(=O)[C@@H](NC(=O)[C@@H](NC(=O)N[C@H](C(=O)O)C(C)C)[C@@H]2CCN=C(N)N2)[C@@H](O)C(C)C)[C@H]2O[C@@H](n3ccc(=O)[nH]c3=O)[C@H](O)[C@@H]2O)O[C@H](CNC(=O)Nc2ccc(F)cc2)[C@H]1O` (some centres undefined), the Inhibitory activity entry in [5], in experiment [6], in experiment [7] and in experiment [8] was “Active” throughout.
For the molecule `CCCCCNC[C@H]1O[C@@H](OC([C@H]2O[C@@H](n3ccc(=O)[nH]c3=O)[C@H](O)[C@@H]2O)[C@@H](C(=O)O)N(CCCCC)CCCNC(=O)[C@@H](NC(=O)[C@@H](NC(=O)N[C@H](C(=O)O)C(C)C)[C@@H]2CCN=C(N)N2)[C@@H](O)C(C)C)[C@H](OC)[C@@H]1O` (some centres undefined), the Inhibitory activity entry in experiment [5], in [6], in experiment [7] and in [8] was “inactive” throughout.
For the molecule `CCCCCCCCCCCCN(CCCNC(=O)[C@@H](NC(=O)[C@@H](NC(=O)N[C@H](C(=O)O)C(C)C)[C@@H]1CCN=C(N)N1)[C@@H](O)C(C)C)[C@H](C(=O)O)C(O[C@@H]1O[C@H](CN)[C@@H](O)[C@H]1OC)[C@H]1O[C@@H](n2ccc(=O)[nH]c2=O)[C@H](O)[C@@H]1O` (some centres undefined), the Inhibitory activity entry in experiment [9] and in experiment [5] was “inactive” throughout. Besides, the Inhibitory activity entry in [1] and in [3] was “Active” each time.
In the case of `CO[C@H]1[C@H](OC(C2C(=O)N(c3ccc(F)cc3)C(=O)N2CCCNC(=O)[C@@H](NC(=O)[C@@H](NC(=O)N[C@H](C(=O)O)C(C)C)[C@@H]2CCN=C(N)N2)[C@@H](O)C(C)C)[C@H]2O[C@@H](n3ccc(=O)[nH]c3=O)[C@H](O)[C@@H]2O)O[C@H](CN)[C@H]1O` (some centres undefined), the Inhibitory activity result in experiment [1], in [10], in [2] and in [3] was “Active” each time.
Consider `CCCCCCCCCCCCNC(=O)NC[C@H]1O[C@@H](OC(C2C(=O)N(CCCCCCCCCCCC)C(=O)N2CCCNC(=O)[C@@H](NC(=O)[C@@H](NC(=O)N[C@H](C(=O)O)C(C)C)[C@@H]2CCN=C(N)N2)[C@@H](O)C(C)C)[C@H]2O[C@@H](n3ccc(=O)[nH]c3=O)[C@H](O)[C@@H]2O)[C@H](OC)[C@@H]1O` (some centres undefined), for which the Inhibitory activity entry in experiment [5], in [6], in experiment [7] and in [8] was “Active” throughout.
`CO[C@H]1[C@H](OC([C@H]2O[C@@H](n3ccc(=O)[nH]c3=O)[C@H](O)[C@@H]2O)[C@@H](C(=O)O)N(CCCNC(=O)[C@@H](NC(=O)[C@@H](NC(=O)N[C@H](C(=O)O)C(C)C)[C@@H]2CCN=C(N)N2)[C@@H](O)C(C)C)Cc2ccc(-c3ccccc3)cc2)O[C@H](CNCc2ccc(-c3ccccc3)cc2)[C@H]1O` (some centres undefined): the Inhibitory activity entry in experiment [5], in [6], in experiment [7] and in experiment [8] was “Active” throughout.
In the case of `CCCCCCNC(=O)NC[C@H]1O[C@@H](OC(C2C(=O)N(CCCCCC)C(=O)N2CCCNC(=O)[C@@H](NC(=O)[C@@H](NC(=O)N[C@H](C(=O)O)C(C)C)[C@@H]2CCN=C(N)N2)[C@@H](O)C(C)C)[C@H]2O[C@@H](n3ccc(=O)[nH]c3=O)[C@H](O)[C@@H]2O)[C@H](OC)[C@@H]1O` (some centres undefined), the Inhibitory activity result in experiment [5], in experiment [6], in experiment [7] and in experiment [8] was “Active” each time.
Regarding `CO[C@H]1[C@H](OC([C@H](NCCCNC(=O)[C@@H](NC(=O)[C@@H](NC(=O)N[C@H](C(=O)O)C(C)C)[C@@H]2CCN=C(N)N2)[C@@H](O)C(C)C)C(=O)O)[C@H]2O[C@@H](n3ccc(=O)[nH]c3=O)[C@H](O)[C@@H]2O)O[C@H](C/N=C(C)/C=C(/C)O)[C@H]1O` (some centres undefined), the Inhibitory activity entry in experiment [5], in experiment [6], in [7] and in experiment [8] was “Active” each time.
Turning to `CO[C@H]1[C@H](OC([C@H](NCCCNC(=O)[C@@H](NC(=O)[C@@H](NC(=O)N[C@H](C(=O)O)C(C)C)[C@@H]2CCN=C(N)N2)[C@@H](O)C(C)C)C(=O)O)[C@H]2O[C@@H](n3ccc(=O)[nH]c3=O)[C@H](O)[C@@H]2O)O[C@H](CN)[C@H]1O` (some centres undefined), the Inhibitory activity entry in experiment [1], in [2], in experiment [3] and in [4] was “Active” each time.
With `CO[C@H]1[C@H](OC([C@H]2O[C@@H](n3ccc(=O)[nH]c3=O)[C@H](O)[C@@H]2O)[C@@H](C(=O)O)N(CCCCCCCCCCCCN2CCOCC2)CCCNC(=O)[C@@H](NC(=O)[C@@H](NC(=O)N[C@H](C(=O)O)C(C)C)[C@@H]2CCN=C(N)N2)[C@@H](O)C(C)C)O[C@H](CN)[C@H]1O` (some centres undefined), the Inhibitory activity result in experiment [5] and in experiment [7] was “inactive” each time. The Inhibitory activity entry in [3] and in [8] was “Active” in each case.
With `CCCCCCCCNC(=O)NC[C@H]1O[C@@H](OC(C2C(=O)N(CCCCCCCC)C(=O)N2CCCNC(=O)[C@@H](NC(=O)[C@@H](NC(=O)N[C@H](C(=O)O)C(C)C)[C@@H]2CCN=C(N)N2)[C@@H](O)C(C)C)[C@H]2O[C@@H](n3ccc(=O)[nH]c3=O)[C@H](O)[C@@H]2O)[C@H](OC)[C@@H]1O` (some centres undefined), the Inhibitory activity entry in experiment [5], in experiment [11], in experiment [7] and in experiment [8] was “Active” in each case.
On to `CCCCCN1C(=O)C(C(O[C@@H]2O[C@H](CN)[C@@H](O)[C@H]2OC)[C@H]2O[C@@H](n3ccc(=O)[nH]c3=O)[C@H](O)[C@@H]2O)N(CCCNC(=O)[C@@H](NC(=O)[C@@H](NC(=O)N[C@H](C(=O)O)C(C)C)[C@@H]2CCN=C(N)N2)[C@@H](O)C(C)C)C1=O` (some centres undefined), for which the Inhibitory activity result in experiment [5] and in [7] was “inactive” throughout. Besides, the Inhibitory activity result in experiment [3] and in experiment [8] was “Active” throughout.
Take `COc1ccc(NC(=O)NC[C@H]2O[C@@H](OC(C3C(=O)N(c4ccc(OC)cc4)C(=O)N3CCCNC(=O)[C@@H](NC(=O)[C@@H](NC(=O)N[C@H](C(=O)O)C(C)C)[C@@H]3CCN=C(N)N3)[C@@H](O)C(C)C)[C@H]3O[C@@H](n4ccc(=O)[nH]c4=O)[C@H](O)[C@@H]3O)[C@H](OC)[C@@H]2O)cc1` (some centres undefined): the Inhibitory activity result in experiment [5], in experiment [6], in experiment [7] and in [8] was “Active” in each case.
In the case of `CCCCCCCCCCCCN1C(=O)C(C(O[C@@H]2O[C@H](CN)[C@@H](O)[C@H]2OC)[C@H]2O[C@@H](n3ccc(=O)[nH]c3=O)[C@H](O)[C@@H]2O)N(CCCNC(=O)[C@@H](NC(=O)[C@@H](NC(=O)N[C@H](C(=O)O)C(C)C)[C@@H]2CCN=C(N)N2)[C@@H](O)C(C)C)C1=O` (some centres undefined), the Inhibitory activity result in experiment [1], in experiment [2], in [3] and in [4] was “Active” in each case.
`CCCCCN(CCCNC(=O)[C@@H](NC(=O)[C@@H](NC(=O)N[C@H](C(=O)O)C(C)C)[C@@H]1CCN=C(N)N1)[C@@H](O)C(C)C)[C@H](C(=O)O)C(O[C@@H]1O[C@H](CN)[C@@H](O)[C@H]1OC)[C@H]1O[C@@H](n2ccc(=O)[nH]c2=O)[C@H](O)[C@@H]1O` (some centres undefined): the Inhibitory activity entry in experiment [5] and in [7] was “inactive” throughout. The Inhibitory activity result in [3] and in [8] was “Active” each time.
